In patent publication US20240043404A1 (AbbVie Inc., priority 2009, published 2024):
Like-named read-outs stand apart in the source and are kept apart here.

Test system: RS4;11 cells
Experiment: RS4;11 cell viability assay (CellTiter Glo);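 note: acute lymphoblastic leukemia line RS4,11, EC50 derived from percentage of viable cells after treatment relative to untreated controls, cell killing taken as a measure of Bcl-2 inhibition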
Type: cell-based, human
Conditions: Homo sapiens, read-out: RS4
[1] = RS4-11, 48 h, 50,000 cells per well, 10% human serum, 48 hours, 11 EC50 Values
[2] = RS4-11, Table 5, direct comparison Z=N with corresponding analogs Z=C, 11 EC50

Method: The acute lymphoblastic leukemia (ALL) cell line RS4;11 was used as the primary human cell line to assess the cellular activity of Bcl-2 selective agents in vitro and their efficacy in vivo.
Cell cytotoxicity EC50 values were assessed using CellTiter Glo (Promega) according to the manufacturer's recommendations. The EC50 values were determined as a percentage of viable cells following treatment compared to the untreated control cells.

Structure (SMILES)	EC50 [1] [nM]	EC50 [2] [nM]	EC50 (RS4-11, Table 4, selected compounds in U.S. Pat. Application No. 12/631404, 11 EC50) [nM]
CC1(C)CCC(CN2CCN(c3ccc(C(=O)NS(=O)(=O)c4ccc(NC5CCS(=O)(=O)CC5)c([N+](=O)[O-])c4)c(Oc4cnc5[nH]ccc5c4)c3)CC2)=C(c2ccc(Cl)cc2)C1 [Example 81, 4-(4-{[2-(4-chlorophenyl)-4,4-dimethylcyclohex-1-en-1-yl]methyl}piperazin-1-yl)-N-({4-[(1,1-dioxidotetrahydro-2H-thiopyran-4-yl)amino]-3-nitrophenyl}sulfonyl)-2-(1H-pyrrolo[2,3-b]pyridin-5-yloxy)benzamide]	48.1	–	–
CCN(C)C(=O)N1CCO[C@H](COc2ncc(S(=O)(=O)NC(=O)c3ccc(N4CCN(CC5=C(c6ccc(Cl)cc6)CC(C)(C)CC5)CC4)cc3Oc3cnc4[nH]ccc4c3)cc2Cl)C1 [Example 334, (2S)-2-{[(3-chloro-5-{[4-(4-{[2-(4-chlorophenyl)-4,4-dimethylcyclohex-1-en-1-yl]methyl}piperazin-1-yl)-2-(1H-pyrrolo[2,3-b]pyridin-5-yloxy)benzoyl]sulfamoyl}pyridin-2-yl)oxy]methyl}-N-ethyl-N-methylmorpholine-4-carboxamide]	> 1000	–	–
CC1(C)CCC(c2ccc(Cl)cc2)=C(CN2CCN(c3ccc(C(=O)NS(=O)(=O)c4ccc(NCC5CCOCC5)c([N+](=O)[O-])c4)c(Oc4cnc5[nH]ccc5c4)c3)CC2)C1 [Example 75, 4-(4-{[2-(4-chlorophenyl)-5,5-dimethylcyclohex-1-en-1-yl]methyl}piperazin-1-yl)-N-({3-nitro-4-[(tetrahydro-2H-pyran-4-ylmethyl)amino]phenyl}sulfonyl)-2-(1H-pyrrolo[2,3-b]pyridin-5-yloxy)benzamide]	15.1	–	–
CO[C@H]1CC[C@@H](CNc2ccc(S(=O)(=O)NC(=O)c3ccc(N4CCN(CC5=C(c6ccc(Cl)cc6)CC(C)(C)CC5)CC4)cc3Oc3cnc4[nH]ccc4c3)cc2[N+](=O)[O-])CC1 [Example 29, Cis-4-(4-{[2-(4-chlorophenyl)-4,4-dimethylcyclohex-1-en-1-yl]methyl}piperazin-1-yl)-N-[(4-{[(4-methoxycyclohexyl)methyl]amino}-3-nitrophenyl)sulfonyl]-2-(1H-pyrrolo[2,3-b]pyridin-5-yloxy)benzamide]	20.5	–	–
CC1(C)CCC(CN2CCN(c3ccc(C(=O)NS(=O)(=O)c4ccc(NC[C@@H]5CCCOC5)c([N+](=O)[O-])c4)c(Oc4ccc5[nH]ccc5c4)c3)CC2)=C(c2ccc(Cl)cc2)C1 [Example 21, 4-(4-{[2-(4-chlorophenyl)-4,4-dimethylcyclohex-1-en-1-yl]methyl}piperazin-1-yl)-2-(1H-indol-5-yloxy)-N-[(3-nitro-4-{[(3S)-tetrahydro-2H-pyran-3-ylmethyl]amino}phenyl)sulfonyl]benzamide]	62	62	–
CC(C)(CO)CNc1ccc(S(=O)(=O)NC(=O)c2ccc(N3CCN(CC4=C(c5ccc(Cl)cc5)CC(C)(C)CC4)CC3)cc2Oc2cnc3[nH]ccc3c2)cc1[N+](=O)[O-] [Example 146, 4-(4-{[2-(4-chlorophenyl)-4,4-dimethylcyclohex-1-en-1-yl]methyl}piperazin-1-yl)-N-({4-[(3-hydroxy-2,2-dimethylpropyl)amino]-3-nitrophenyl}sulfonyl)-2-(1H-pyrrolo[2,3-b]pyridin-5-yloxy)benzamide]	19.2	–	–
CC1(C)CCC(CC2CCN(c3ccc(C(=O)NS(=O)(=O)c4ccc(OCC5CCOCC5)c(Cl)c4)c(Oc4cnc5[nH]ccc5c4)c3)CC2)=C(c2ccc(Cl)cc2)C1 [Example 316, 4-(4-{[2-(4-chlorophenyl)-4,4-dimethylcyclohex-1-en-1-yl]methyl}piperidin-1-yl)-N-{[3-chloro-4-(tetrahydro-2H-pyran-4-ylmethoxy)phenyl]sulfonyl}-2-(1H-pyrrolo[2,3-b]pyridin-5-yloxy)benzamide]	> 1000	–	–
CC1(C)CCC(CN2CCN(c3ccc(C(=O)NS(=O)(=O)c4ccc(NC5CN(C6COC6)C5)c([N+](=O)[O-])c4)c(Oc4cnc5[nH]ccc5c4)c3)CC2)=C(c2ccc(Cl)cc2)C1 [Example 256, 4-(4-{[2-(4-chlorophenyl)-4,4-dimethylcyclohex-1-en-1-yl]methyl}piperazin-1-yl)-N-[(3-nitro-4-{[1-(oxetan-3-yl)azetidin-3-yl]amino}phenyl)sulfonyl]-2-(1H-pyrrolo[2,3-b]pyridin-5-yloxy)benzamide]	18	–	–
CC1(C)CCC(CN2CCN(c3ccc(C(=O)NS(=O)(=O)c4ccc(N[C@H]5CCN(C6CC6)C5)c([N+](=O)[O-])c4)c(Oc4cnc5[nH]ccc5c4)c3)CC2)=C(c2ccc(Cl)cc2)C1 [Example 142, 4-(4-{[2-(4-chlorophenyl)-4,4-dimethylcyclohex-1-en-1-yl]methyl}piperazin-1-yl)-N-[(4-{[(3S)-1-cyclopropylpyrrolidin-3-yl]amino}-3-nitrophenyl)sulfonyl]-2-(1H-pyrrolo[2,3-b]pyridin-5-yloxy)benzamide]	345	–	–
CC1(C)CC(c2ccc(Cl)cc2)=C(CN2CCN(c3ccc(C(=O)NS(=O)(=O)c4ccc(NCC5CCOCC5)c([N+](=O)[O-])c4)c(Oc4ccc5[nH]ccc5c4)c3)CC2)CO1 [Example 23, 4-(4-{[4-(4-chlorophenyl)-6,6-dimethyl-5,6-dihydro-2H-pyran-3-yl]methyl}piperazin-1-yl)-2-(1H-indol-5-yloxy)-N-({3-nitro-4-[(tetrahydro-2H-pyran-4-ylmethyl)amino]phenyl}sulfonyl)benzamide]	45	45	45
CC1(C)CCC(CN2CCN(c3ccc(C(=O)NS(=O)(=O)c4cnc(O[C@@H]5CCN(C(CF)CF)C5)c(Cl)c4)c(Oc4cnc5[nH]ccc5c4)c3)CC2)=C(c2ccc(Cl)cc2)C1 [Example 274, N-[(5-chloro-6-{[(3R)-1-(1,3-difluoropropan-2-yl)pyrrolidin-3-yl]oxy}pyridin-3-yl)sulfonyl]-4-(4-{[2-(4-chlorophenyl)-4,4-dimethylcyclohex-1-en-1-yl]methyl}piperazin-1-yl)-2-(1H-pyrrolo[2,3-b]pyridin-5-yloxy)benzamide]	214	–	–
COC1(COc2ccc(S(=O)(=O)NC(=O)c3ccc(N4CCN(CC5=C(c6ccc(Cl)cc6)CC(C)(C)CC5)CC4)cc3Oc3cnc4[nH]ccc4c3)cc2[N+](=O)[O-])CCOCC1 [Example 234, 4-(4-{[2-(4-chlorophenyl)-4,4-dimethylcyclohex-1-en-1-yl]methyl}piperazin-1-yl)-N-({4-[(4-methoxytetrahydro-2H-pyran-4-yl)methoxy]-3-nitrophenyl}sulfonyl)-2-(1H-pyrrolo[2,3-b]pyridin-5-yloxy)benzamide]	135	–	–
CC1(C)CCC(CN2CCN(c3ccc(C(=O)NS(=O)(=O)c4ccc(N[C@@H]5CCN(CC#N)C5)c([N+](=O)[O-])c4)c(Oc4cnc5[nH]ccc5c4)c3)CC2)=C(c2ccc(Cl)cc2)C1 [Example 262, 4-(4-{[2-(4-chlorophenyl)-4,4-dimethylcyclohex-1-en-1-yl]methyl}piperazin-1-yl)-N-[(4-{[(3R)-1-(cyanomethyl)pyrrolidin-3-yl]amino}-3-nitrophenyl)sulfonyl]-2-(1H-pyrrolo[2,3-b]pyridin-5-yloxy)benzamide]	16.3	–	–
